Source: publication PMC5571287 (Antimicrobial Agents and Chemotherapy, 2017)
Where two headings read alike, the source gives them in different places.

Legend:
RSV A Long [1] = experiment: RSV A Long-infected cotton rats, lung homogenate viral load and transcripts; assay type: in vivo
RSVA 492 [2] = experiment: microbe, parasite or virus in culture; assay type: cell-based; settings: human respiratory syncytial virus, RSVA 492, clinical
[3] = tested on: Measles virus (Edmonton strain); experiment: microbe, parasite or virus in culture; assay type: cell-based; settings: MRC5
[4] = Antiviral panel: cytotoxicity; assay type: cell-based; settings: human, Huh-7 cells with HCV GT1b replicon; Huh-7, GT1b replicon
RSVB 1262 [5] = experiment: microbe, parasite or virus in culture; assay type: cell-based; settings: human respiratory syncytial virus, RSVB 1262, clinical
RSVA 689 = settings: human respiratory syncytial virus
RSV A Long [6] = experiment: CPE assay in HEp-2 cells (resazurin); assay type: cell-based; settings: human respiratory syncytial virus, laboratory
[7] = tested on: known RSV A clinical isolates; experiment: CPE assays, known RSV A clinical isolates in HEp-2; assay type: cell-based; settings: human respiratory syncytial virus, read-out: IC50, range over known RSV A clinical isolates
Protocol: For RSV A 2001/3-12, 1998/3-2, and USU⃥v1225, CPE was induced in HEp-2 cells for 7 days and the plates were then stained with neutral red dye for approximately 2 h. The intracellular incorporated dye was extracted in 50:50 Sorensen citrate buffer-ethanol and the absorbance read on a spectrophotometer. The optical density (OD) of test wells was converted to percentage of cell and virus controls. […] The virus inocula were ∼63 50% cell culture infectious doses (CCID50) per well for 2001/3-12, ∼40 CCID50/well for 1998/3-2, and ∼32 CCID50/well for USU\v1225. This assay was conducted in Utah State University (Logan, UT).
For known clinical strains (RSV A 1997/12-35, 2001/2-20, 200/3-4, and Memphis 37), a 384-well-format resazurin-based CPE assay was conducted.

PIV3 (C243 strain) = experiment: organism not typed; assay type: cell-based, parainfluenza virus 3; settings: PIV3, LLC-MK2 7.1
HIV-1 (IIIB strain) = experiment: microbe, parasite or virus in culture; assay type: cell-based, human immunodeficiency virus type 1; settings: HIV-1, CEM-SS
[8] = tested on: human mitochondrial polymerase; experiment: Human polymerase inhibition in vitro (data not shown); assay type: biochemical; settings: up to 1 μM
RSVB 1262 [9] = settings: human respiratory syncytial virus
RSVB 1000 [10] = experiment: microbe, parasite or virus in culture; assay type: cell-based; settings: human respiratory syncytial virus, RSVB 1000, clinical, 3 parameter curve fit
[11] = tested on: RSV A2 protein expression; experiment: Western blotting of RSV proteins in RSV A2-infected HEp-2 cells; assay type: cell-based, respiratory syncytial virus; settings: HEp-2, 3 days postinfection
Protocol: HEp-2 cells were seeded in 6-well plates at a density of 3 × 10^5/well (2 ml/well) 24 h before experimentation and were then treated with compounds (10 μl/well), simultaneously infected with RSV A2 (MOI, 1), and incubated for 72 h. Cells were washed with PBS and collected by scraping in 200 μl of PBS with protease and phosphatase inhibitor cocktail (PPI; Sigma-Aldrich; MSSAFE-1VL 1× in PBS), followed by two further washes with 200 μl of PBS, and the cell suspension was centrifuged to pellet. Radioimmunoprecipitation assay (RIPA) buffer (50 μl) containing 50 mM Tris-HCl (pH 7.4), 150 mM NaCl, 1% (vol/vol) NP-40, 0.25% (wt/vol) sodium deoxycholate, and PPI was applied to the cell pellet, which was vortexed and incubated for 30 min, on ice with further cell disruptions every 10 min. The protein concentration of the supernatant after centrifugation was determined by Bradford assay. The lysate containing 30 μg of protein was separated by electrophoresis on a 4 to 12% gradient bis-Tris polyacrylamide gel (Life Technologies; NP0335BOX) and then transferred to a nitrocellulose membrane using the iBlot gel transfer device (Life Technologies). The membrane was blocked with blocking buffer (TBS/T; 20 mM TBS and 0.1% Tween 20 with 5% skim milk) for 1 h at RT and incubated with anti-RSV F protein antibody (Abcam ab43812; 1:1,000) overnight at 4°C for F protein detection. […]

[12] = tested on: Influenza virus H1N1 (A/PR/34 strain); experiment: microbe, parasite or virus in culture; assay type: cell-based; settings: Influenza virus H1N1, A549
RSVB 1000 [13] = settings: human respiratory syncytial virus
RSVA 492 [14] = settings: human respiratory syncytial virus
human polymerase α = human polymerase α (Homo sapiens, UniProt P09884); experiment: Human polymerase inhibition in vitro (data not shown); assay type: biochemical; settings: up to 1 μM
[15] = HEp-2, read-out: RSV titre in supernatant IC50 (0.3 Log PFUe reduction) (converted)
[16] = HEp-2, read-out: RSV titre in supernatant IC90 (1 Log PFUe reduction) (converted)

Sequence of human polymerase α (P09884 whole entry): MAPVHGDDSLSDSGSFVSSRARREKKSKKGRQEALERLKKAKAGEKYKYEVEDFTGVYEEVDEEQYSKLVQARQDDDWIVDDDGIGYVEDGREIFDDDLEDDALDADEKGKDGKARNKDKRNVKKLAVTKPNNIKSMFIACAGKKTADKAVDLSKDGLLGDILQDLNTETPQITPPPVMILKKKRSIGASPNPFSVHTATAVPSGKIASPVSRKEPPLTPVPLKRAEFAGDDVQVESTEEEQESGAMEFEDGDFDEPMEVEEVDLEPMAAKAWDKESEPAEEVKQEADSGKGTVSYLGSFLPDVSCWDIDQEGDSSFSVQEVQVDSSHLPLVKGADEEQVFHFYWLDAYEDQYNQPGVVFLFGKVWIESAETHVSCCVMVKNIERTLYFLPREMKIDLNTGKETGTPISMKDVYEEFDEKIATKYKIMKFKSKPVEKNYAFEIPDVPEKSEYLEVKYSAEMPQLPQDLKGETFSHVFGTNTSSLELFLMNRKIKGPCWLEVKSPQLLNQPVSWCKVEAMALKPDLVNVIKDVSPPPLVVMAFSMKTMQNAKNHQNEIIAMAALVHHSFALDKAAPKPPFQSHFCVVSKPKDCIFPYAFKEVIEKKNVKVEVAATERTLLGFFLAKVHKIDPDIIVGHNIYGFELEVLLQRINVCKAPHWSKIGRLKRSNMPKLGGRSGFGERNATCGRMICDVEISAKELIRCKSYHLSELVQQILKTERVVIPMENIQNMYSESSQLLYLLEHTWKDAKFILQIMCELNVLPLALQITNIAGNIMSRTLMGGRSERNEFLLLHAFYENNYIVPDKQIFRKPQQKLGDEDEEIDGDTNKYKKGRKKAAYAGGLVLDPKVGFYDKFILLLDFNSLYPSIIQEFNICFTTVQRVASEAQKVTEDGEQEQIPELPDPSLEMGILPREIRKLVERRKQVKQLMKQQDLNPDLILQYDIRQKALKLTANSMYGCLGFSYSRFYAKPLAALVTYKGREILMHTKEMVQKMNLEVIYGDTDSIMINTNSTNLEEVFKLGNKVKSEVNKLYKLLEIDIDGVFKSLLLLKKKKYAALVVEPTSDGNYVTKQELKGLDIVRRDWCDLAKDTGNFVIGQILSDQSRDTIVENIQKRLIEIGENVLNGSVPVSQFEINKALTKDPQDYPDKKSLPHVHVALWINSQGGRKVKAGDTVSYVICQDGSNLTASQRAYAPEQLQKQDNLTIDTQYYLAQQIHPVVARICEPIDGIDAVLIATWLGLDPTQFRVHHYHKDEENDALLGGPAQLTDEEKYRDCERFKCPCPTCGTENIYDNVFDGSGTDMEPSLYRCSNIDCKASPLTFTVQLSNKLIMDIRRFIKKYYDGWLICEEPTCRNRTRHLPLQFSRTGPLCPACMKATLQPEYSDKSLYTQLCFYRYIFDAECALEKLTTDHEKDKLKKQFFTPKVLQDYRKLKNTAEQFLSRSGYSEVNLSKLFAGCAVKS

SMILES: Cc1cnc(N2CC3(CCOCC3)C2)c(C(=O)Nc2ccc(C(=O)N3CCc4cc(C(=O)Nc5c(C)cccc5F)sc4-c4ccccc43)cc2)c1 [PC786, N-(2-fluoro-6-methylphenyl)-6-(4-(5-methyl-2-(7-oxa-2-azaspiro[3.5]nonan-2-yl)nicotinamido)benzoyl)-5,6-dihydro-4H-benzo[b]thieno[2,3-d]azepine-2-carboxamide]
- IP-10 transcripts in lung homogenates (RSV A Long [1]; i.n. 0.33-10 mg/ml, day 4): dose-dependent inhibition
- RANTES transcripts in lung homogenates (RSV A Long [1]; i.n. 0.33-10 mg/ml, day 4): dose-dependent inhibition
- RSV NS-1 gene transcripts in lung homogenates (RSV A Long [1]; i.n. 0.33-10 mg/ml, day 4): dose-dependent inhibition
- viral load in lung homogenates on day 4 (RSV A Long [1]; i.n. once daily days 0 to 3, doses of more than […] (165 μg/cotton rat)): lower than the detection limit
- IC50 (RSVA 492 [2]; read-out: CPE IC50): 0.42 nM
- IC90 (RSVA 492 [2]; read-out: CPE IC90): 0.57 nM
- IC90 or IC95 [3]: >14000 nM
- IC50 ([3]; Measles morbillivirus): > 14000 nM
- CC50 at 3 days [4]: > 14000 nM
- IC50 (RSVB 1262 [5]; read-out: CPE IC50): 14.5 nM
- IC90 (RSVB 1262 [5]; read-out: CPE IC90): 692 nM
- IC50 (RSVA 689; [15]): 0.54 nM
- IC90 (RSVA 689; [16]): 1.12 nM
- IC50 (RSV A Long [6]): 2.46 nM
- IC90 (RSV A Long [6]): 3.25 nM
- IC50 [7]: 0.14 to 3.2 nM
- IC50 (PIV3 (C243 strain)): > 14000 nM
- IC90 or IC95 (PIV3 (C243 strain)): >14000 nM
- IC90 or IC95 (HIV-1 (IIIB strain)): >14000 nM
- IC50 (HIV-1 (IIIB strain); Human immunodeficiency virus 1, IIIB): > 14000 nM
- inhibitory effects on human mitochondrial polymerase [8]: no measurable inhibitory effects
- IC50 (RSVB 1262 [9]; [15]): 9.36 nM
- IC90 (RSVB 1262 [9]; [16]): 12.3 nM
- IC50 (RSVB 1000 [10]; read-out: CPE IC50): 13.4 nM
- IC90 (RSVB 1000 [10]; read-out: CPE IC90): 342 nM
- concentration above which no or little G, N, P, M, M2-1, and F1 protein bands were visible [11]: greater than 14 nM
- IC90 or IC95 [12]: >14000 nM
- IC50 ([12]; unidentified influenza virus): > 14000 nM
- IC50 (RSVB 1000 [13]; [15]): 10.3 nM
- IC90 (RSVB 1000 [13]; [16]): 12.4 nM
- IC50 (RSVA 492 [14]; [15]): 0.43 nM
- IC90 (RSVA 492 [14]; [16]): 0.5 nM
- inhibitory effects on human polymerase α (human polymerase α): no measurable inhibitory effects
